Measurements taken from the supplement of paper PMC4977894.
Structures can show the parent of a compound that is named as a salt. ± gives the standard deviation of the averaged measurements.

Legend:
[1] = tested on: Homo sapiens (human subject panel, olfactory perception); test: perceived odor intensity rating (rating 0-100); higher = stronger perceived smell
How it was run: (§1)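 For each molecule, 1 mL diluted in paraffin oil was sniffed at high and low concentrations by 55 healthy human subjects aged 18–50, with the six lowest performers excluded. Presentation order was randomized over ten visits of 100 stimuli. Subjects who reported smelling a stimulus moved a computerized slider from its starting position of 50, and positions were converted to a 0–100 scale. The familiarity, intensity and pleasantness ratings are averaged across subjects.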

[2] = tested on: Homo sapiens (human subject panel, olfactory perception); test: perceived odor familiarity rating (rating 0-100); higher = more familiar
How it was run: as §1

[3] = tested on: Homo sapiens (human subject panel, olfactory perception); test: perceived odor pleasantness rating (rating 0-100); higher = more pleasant
How it was run: as §1

[4] = odor dilution in paraffin oil: 1/100,000
[5] = odor dilution in paraffin oil: 1/10,000,000
[6] = odor dilution in paraffin oil: 1/10
[7] = odor dilution in paraffin oil: 1/1,000

Compound	perceived odor intensity rating [1, 4]	perceived odor intensity rating [1, 5]	perceived odor familiarity rating [2, 4]	perceived odor familiarity rating [2, 5]	perceived odor pleasantness rating [3, 4]	perceived odor pleasantness rating [3, 5]	perceived odor intensity rating [1, 6]	perceived odor intensity rating [1, 7]	perceived odor familiarity rating [2, 6]	perceived odor familiarity rating [2, 7]	perceived odor pleasantness rating [3, 6]	perceived odor pleasantness rating [3, 7]
CCC1OC(=O)C(O)=C1C (stereo not drawn) [5-Ethyl-3-hydroxy-4-methyl-2(5H)-furanone (replicate)]	44.9 ± 30	58.9 ± 32	54.2 ± 32	64.6 ± 32	65.2 ± 22	67.5 ± 26	–	–	–	–	–	–
O=C(O)/C=C/c1ccccc1 [trans-Cinnamic acid]	–	–	–	–	–	–	72.3 ± 23	59.5 ± 30	51.5 ± 31	46.5 ± 32	52.7 ± 30	28.4 ± 28
O=C(O)c1ccccc1 [Benzoic acid]	20.2 ± 24	–	38.7 ± 30	–	55.5 ± 25	–	–	30.3 ± 27	–	34.4 ± 25	–	34.9 ± 22
O=C(c1ccccc1)c1ccccc1 [benzophenone]	–	–	–	–	–	–	67.7 ± 27	24.9 ± 29	38.6 ± 31	33.2 ± 28	36.2 ± 24	57.5 ± 25
CCCSSCCC [dipropyl disulfide]	59.7 ± 31	–	65.5 ± 30	–	40.1 ± 28	–	–	79.9 ± 21	–	65.6 ± 31	–	35.9 ± 26
CCOC(C)=O [ethyl acetate]	19.3 ± 24	–	40 ± 32	–	45.7 ± 29	–	–	40.3 ± 29	–	44.2 ± 30	–	45.2 ± 22
CC12CCC(CC1=O)C2(C)C (stereo not drawn) [Camphor]	17.3 ± 20	–	31.3 ± 29	–	53.1 ± 22	–	–	57.4 ± 30	–	54.4 ± 30	–	49.5 ± 25
CC(=O)c1ccccn1 [2-acetyl pyridine]	74.3 ± 22	–	67.8 ± 29	–	53.6 ± 27	–	–	79.2 ± 20	–	66.9 ± 28	–	49.7 ± 28
CC(=O)c1cccnc1 [3-Acetylpyridine]	24.6 ± 30	–	30 ± 31	–	44.8 ± 29	–	–	76.2 ± 23	–	48.2 ± 33	–	32.3 ± 29
O=C(Cc1ccccc1)Cc1ccccc1 [1,3-Diphenyl-2-propanone]	35.4 ± 28	–	48.1 ± 30	–	43 ± 27	–	–	78.1 ± 20	–	49.7 ± 34	–	32.7 ± 29
CCc1nccnc1C(C)=O [2-Acetyl-3-ethylpyrazine]	46.3 ± 30	–	52.4 ± 30	–	41.2 ± 23	–	–	79.4 ± 20	–	57.2 ± 29	–	25.7 ± 23
COC(=O)c1ccccc1N [Methyl anthranilate]	58.3 ± 30	–	56.7 ± 30	–	64 ± 25	–	–	74.6 ± 18	–	61.8 ± 31	–	65.3 ± 24
CCCCCCC1CCCC(=O)O1 (stereo not drawn) [delta-Undecalactone]	34.4 ± 30	–	41.4 ± 30	–	60.7 ± 25	–	–	64.9 ± 28	–	51.5 ± 33	–	60.7 ± 31
N[C@@H](Cc1ccc(O)cc1)C(=O)O [L-Tyrosine]	25.3 ± 33	–	26.6 ± 26	–	44.1 ± 30	–	–	30.7 ± 28	–	37.4 ± 27	–	44 ± 23
CNc1ccccc1C(=O)OC [Dimethyl anthranilate]	17.1 ± 21	–	31.2 ± 29	–	53.3 ± 26	–	–	44.2 ± 31	–	53 ± 28	–	63.1 ± 23
CC1CCCCC1=O (stereo not drawn) [2-Methylcyclohexanone]	12.6 ± 18	–	33.4 ± 30	–	50.9 ± 22	–	–	74.6 ± 25	–	49.8 ± 32	–	31.6 ± 25
CCSCC [Diethyl sulfide]	62.5 ± 32	19.7 ± 27	37.5 ± 27	42 ± 27	24.2 ± 22	43.8 ± 23	–	–	–	–	–	–
CCC(=O)OCC(C)C [Isobutyl propionate]	31.5 ± 28	–	41 ± 28	–	47.8 ± 23	–	–	57.3 ± 30	–	48 ± 27	–	58.6 ± 23
CCCCCC/C=C/C(=O)OC [Methyl trans-2-nonenoate]	20.3 ± 22	–	37.1 ± 26	–	56.4 ± 17	–	–	49.1 ± 27	–	53.4 ± 27	–	50.3 ± 27
CCc1ccco1 [2-Ethylfuran]	42.2 ± 35	–	31.4 ± 29	–	38.3 ± 30	–	–	52.4 ± 31	–	45.4 ± 31	–	34.4 ± 24
CCCCOC(C)=O [butyl acetate]	31.6 ± 24	–	43.7 ± 31	–	61.1 ± 19	–	–	76.5 ± 18	–	67.5 ± 29	–	55.6 ± 27
SCCCCCCS [1,6-Hexanedithiol]	74.8 ± 24	33.8 ± 34	51.5 ± 33	36.8 ± 29	24.9 ± 26	40.1 ± 25	–	–	–	–	–	–
CCCCCCCCCC1CCCC(=O)O1 (stereo not drawn) [delta-Tetradecalactone (replicate)]	13.9 ± 20	–	26 ± 28	–	51.2 ± 20	–	–	33 ± 30	–	37.7 ± 24	–	41.9 ± 20
CCC(C)CO (stereo not drawn) [2-Methyl-1-butanol]	32.2 ± 26	–	43.3 ± 31	–	48.6 ± 21	–	–	56.2 ± 33	–	43.7 ± 29	–	38.4 ± 24
COc1ccc(C(C)=O)cc1OC [3,4-Dimethoxyacetophenone]	–	–	–	–	–	–	61.7 ± 26	26.5 ± 30	48.6 ± 30	35.9 ± 26	38.9 ± 26	51.4 ± 20
CCCCOC=O [Butyl formate]	8.38 ± 15	–	29.1 ± 29	–	44.1 ± 28	–	–	51.8 ± 32	–	49.7 ± 29	–	45.4 ± 28
NC(Cc1ccccc1)C(=O)O (racemic) [DL-Phenylalanine]	–	–	–	–	–	–	70 ± 24	35.2 ± 29	43.4 ± 31	41.9 ± 29	38.2 ± 26	51.4 ± 27
CC(O)CO (stereo not drawn) [Propylene glycol]	–	–	–	–	–	–	45.8 ± 34	10.5 ± 13	52.2 ± 30	33.7 ± 29	46.2 ± 25	42.5 ± 25
